According to US4497826A, “Antiparkinsonian agent” (priority 1981, dated 1985):
Like-named read-outs stand apart in the source and are kept apart here.

Tests used:
parkinson's disease [1] = conditions: human, 300 mg intravenous; cited from earlier work
[2] = test system: parkinson's disease, freezing phenomenon; assay: Clinical tests 1 to 7: treatment of parkinsonian patients with DL-threo-DOPS and a decarboxylase inhibitor; format: in vivo, human
Protocol: The patient was a person suffering from parkinson's disease, having a disease history of 12 years after being affected by the disease. The primary clinical features were moderate rigidity of the four limbs and trunk were slight tremor. At about 6 years after the start of the disease, L-DOPA therapy was started.
[…] The patient also had difficulty in writing.
This patient was then treated with DL-threo-DOPS in the following dosage, while keeping the administration of L-DOPA, the decarboxylase inhibitor (benserazide hydrochloride) and trihexyphenidyl hydrochloride at strictly the same dosage throughout the period of trial.
DL-threo-DOPS was orally administered to the patient in the form of a capsule (DL-DOPS content: 200 mg) as follows:
First to 2nd day 6 capsules per day
3rd to 4th day 9 capsules per day
5th to 6th day 12 capsules per day
It is noted that the decarboxylase inhibitor was not newly administered, because it was already administered together with L-DOPA.
The patient was a person suffering from parkinson's disease, whose main syndrome was "pure akinesia" which was first described by one of the present inventors [Narabayashi et al, Advances in Parkinsonism (eds., W. Birkmayer and O. Hornykiewicz) Roche Basle, pages 335-342 (1976)].
But on the other hand, motion such as going up or down the stairs could be done rather normally. Accordingly, such a syndrome is also called paradoxical kinesia.
The patient was treated with DL-threo-DOPS and a decarboxylase inhibitor (carbidopa) in the same dosage as in the above Clinical Test 1.
In the same manner, other patients as shown in Table 1 were treated with threo-DOPS and a decarboxylase inhibitor. The results are shown in Table 1 together with the data in the above Clinical Tests 1 and 2.

parkinson's disease [3] = assay: Surface electromyogram, patient of Clinical Test 6; format: in vivo, human; conditions: DL-threo-DOPS 600 mg and carbidopa 60 mg, vs before administration
Protocol: FIGS. 2, 3 and 4 each show surface electromyograms after DL-threo-DOPS and carbidopa were administered in comparison with the surface electromygrams before administration of the drugs. The data of FIG. 2 relate to a tremor of the right upper arm at static state. The data of FIG. 3 relate to tonic stretch reflexes of the extensor muscle of right forearm. The data of FIG. 4 indicate improvement of the skillfulness when flexion and extension movement at the right wrist joint was tried. […] E in FIG. 3 represents the period of passive stretching.
As to the patient in the above Clinical Test 6, the effect of administration of DL-threo-DOPS (600 mg) and carbidopa (60 mg) was measured by surface electromyogram, which was compared with that measured before the administration of drugs.

narcolepsy = conditions: six patients, 200 mg intravenous; cited from earlier work
parkinson's disease [4] = assay: Speed of response (transit time between two switches), patient of Clinical Test 6; format: in vivo, human; conditions: Clinical Test 6 patient
Protocol: The abscissa axis represents time (hour) after administration, and the ordinate axis means transit time (msec). The filled squares represent the transit time after DL-threo-DOPS intake and the open squares on the right side represent the transit time 2 hours after administation of L-DOPA, benserazid hydrochloride and trihexyphenidyl hydrochloride.
In order to quantitatively analyze the improvement of the syndromes in the above clinical tests, a speed of response was measured as to some patients in the tests.
Method for the measurement: The transit time was measured by using two switches (distance: 15 cm) in the same manner as described in Masao Kato and Kazuya Ando, "Parkinson's Disease, Physiopathology and Therapy", page 106, issued by Kanehara Shuppan on Mar. 31, 1978.
Results: The data of the patient in the above Clinical Test 6 are shown in the attached FIG. 1. As is shown in the figure, when it was measured before administration of DL-threo-DOPS (600 mg) and carbidopa (60 mg) and 1, 3, 4, 6 and 8 hours after the administration, the effect peaked at 4 hours after administration, and at the same time, the transit time was shortened about 170 msec as compared to that before administration of the drugs.

decarboxylase = conditions: DL-threo-DOPS vs DL-erythro-DOPS; printed as "1/10 smaller"; cited from earlier work
[5] = acute toxicity (LD50) in mice; conditions: mouse, in vivo
[6] = Side effects in the clinical tests; format: in vivo, human
[7] = test system: L-aromatic amino acid decarboxylase; conditions: cited from earlier work; for enzymatic decarboxylation of the stereoisomers: L- and D-, threo- and erythro-isomers; for nature of the norepinephrine formed: product of decarboxylation
heart norepinephrine = conditions: rats, combination with decarboxylase inhibitor; cited from earlier work
brain norepinephrine = conditions: rats, cited from earlier work
[8] = Clinical Test 1, 3rd day, with L-DOPA, benserazide, trihexyphenidyl
[9] = Clinical Test 1, 5th day, with L-DOPA, benserazide, trihexyphenidyl

Q: What does the source list for `N[C@H](C(=O)O)[C@H](O)c1ccc(O)c(O)c1` (relative stereo) [DL-threo-DOPS]?
A: effect on parkinson's disease (parkinson's disease [1]): ineffective; behavior and expression [2, 8]: more active behavior and expression; difficulty in writing [2, 8]: the difficulty in writing had disappeared; speaking [2, 8]: speaking more clearly than before; walking [2, 8]: much easier; falling down during walking [2, 9]: no falling down during walking within rooms and passageways; walking [2, 9]: could walk smoothly without any assistance and the steps of the walk became almost normal with wide steps; improvement of the syndrome on maintenance ([2]; Clinical Test 1, reduced dose of 9 capsules per day): the improvement of the syndrome is still continuing; walking and freezing in walking ([2]; Clinical Test 2, DL-threo-DOPS 1,800 mg and carbidopa 90 mg): the walking was improved and the freezing in walking disappeared; walking ([2]; Clinical Test 2, several days after reaching DL-threo-DOPS 1,800 mg and carbidopa 90 mg): the walking became almost normal; tremor of the right upper arm at the static state (parkinson's disease [3]; FIG. 2): remarkably decreased or improved; rigidity (stiffness) of the extensor muscle of the right forearm (parkinson's disease [3]; FIG. 3): remarkably decreased and improved; tonic stretch reflex of the extensor muscle of the right forearm (parkinson's disease [3]; FIG. 3): reduced; skillfulness, flexion and extension movement at the right wrist joint (parkinson's disease [3]; FIG. 4): remarkably improved; effect on narcolepsy (narcolepsy): ineffective; shortening of transit time compared to before administration (parkinson's disease [4]; 4 hours after DL-threo-DOPS 600 mg and carbidopa 60 mg): about 170 msec; time of peak effect on transit time after administration (parkinson's disease [4]; DL-threo-DOPS 600 mg and carbidopa 60 mg): 4 h; transit time compared with L-DOPA combination (parkinson's disease [4]; vs 2 hours after L-DOPA 100 mg, benserazide 25 mg, trihexyphenidyl hydrochloride 2 mg): shorter than the transit time measured at 2 hours after administration of L-DOPA; rate of decarboxylation relative to DL-erythro-DOPS (decarboxylase): 1/10

Q: Which LD50 ([5]; ip) does the source give for `N[C@H](C(=O)O)[C@H](O)c1ccc(O)c(O)c1` (relative stereo) [threo-DOPS, threo-3,4-dihydroxyphenylserine] here?
A: ~10000 mg/kg

Q: And the LD50 ([5]; po)?
A: > 10000 mg/kg

Q: What about the serious side effects [6] of the same compound?
A: serious side effects were not observed

Q: Which decarboxylation to norepinephrine ([7]; in vivo and in vitro) does the source give for `NC(C(=O)O)C(O)c1ccc(O)c(O)c1` (centres unmarked) [DOPS] here?
A: can be decarboxylated

Q: What does the source list for `N[C@@H](Cc1ccc(O)c(O)c1)C(=O)O` [L-DOPA, L-3,4-dihydroxyphenylalanine, reference compound]?
A: stiffness and tremor ([2]; Clinical Test 1 patient, earlier L-DOPA 400 mg, benserazide 100 mg, trihexyphenidyl 6 mg daily, oral): the stiffness and tremor were improved; stiffness and tremor ([2]; Clinical Test 1 patient, earlier L-DOPA therapy): improved the stiffness and tremor remarkably; freezing ([2]; Clinical Test 1 patient, increased amount of L-DOPA): it became worse

Q: With `N[C@H](C(=O)O)[C@@H](O)c1ccc(O)c(O)c1` [L-erythro-DOPS, reference compound] as the compound, how does the “enzymatic decarboxylation of the stereoisomers” value [7] read?
A: can be decarboxylated

Q: And the “nature of the norepinephrine formed” value [7]?
A: not natural

Q: What does the source list for `N[C@H](C(=O)O)[C@H](O)c1ccc(O)c(O)c1` [L-threo-DOPS]?
A: DOPS-induced rise of norepinephrine in the heart (heart norepinephrine): abolished; DOPS-induced rise of norepinephrine in the brain (brain norepinephrine; combination with decarboxylase inhibitor): did not enhance; accumulation of norepinephrine in the brain (brain norepinephrine; injection into a cerebral ventricle): remarkable; accumulation of norepinephrine in the brain (brain norepinephrine; intraperitoneal administration): negligible; penetration through B.B.B. (brain norepinephrine): poor penetration; enzymatic decarboxylation of the stereoisomers [7]: can be decarboxylated; nature of the norepinephrine formed [7]: confirmed as natural l-norepinephrine
